Source: US20210214448A1, “CCR5 BINDING AGENT FOR THE TREATMENT OF CCR5 POSITIVE METASTATIC CANCER” (CytoDyn Inc., priority 2020, published 2021)
Entries after “also recorded” stand apart in the source; their conditions may differ.

Experiments:
[1] = target: CCR5 (Homo sapiens, UniProt P51681); conditions: Jiao 2018; cited from earlier work
[2] = system: circulating tumor cells (CTC), epithelial mesenchymal transition cells (EMTs) and cancer-associated macrophage-like cells (CAMLs); assay: Phase Ib/II mTNBC study: CTC, EMT and CAML counts in blood (LifeTrac Assay, CellSieve filtration); type: in vivo, human; conditions: for Number of CTCs (PD-L1) / Number of Apoptotic CTCs (CCR5) / Number of CAMLs (CCR5) / Number of CAMLs (PD-L1) / Number of CTCs (CCR5) / Number of EMTs (CCR5) / Number of EMTs (PD-L1) / CAML- Total / EMT-Total / Number of Apoptotic CTC (PD-L1) / CTC-Total: Patient D; for Number of CTCs (PD-L1): baseline 0; for Number of Apoptotic CTCs (CCR5) / Number of CAMLs (CCR5) / Number of CAMLs (PD-L1) / Number of CTCs (CCR5) / Number of EMTs (CCR5) / Number of EMTs (PD-L1): baseline 1; for CAML- Total / EMT-Total: baseline 2; for Number of Apoptotic CTC (PD-L1): baseline 3; for CTC-Total: baseline 5
Source text: (§1) The primary objective of Phase 1b is to determine the safety, tolerability, and maximum tolerated dose (MTD) of PRO 140 in patients with TNBC, when combined with carboplatin to define a recommended Phase II dose of the combination. The primary objective of phase 2b is to evaluate the impact on progression-free survival (PFS) of the combination of PRO 140 and carboplatin in patients with CCR5+ TNBC previously treated with anthracyclines and taxanes in a neoadjuvant and adjuvant setting. For further investigational plan details please refer to section 5.3.5 in SNO01 (IND 141723).
(§2) Each treatment cycle consisted of 21 days. […] This treatment regimen was used for all subjects enrolled in the mTNBC study, unless otherwise indicated.
The blood sample for circulating tumor cells (CTC) and cancer-associated macrophage-like cells (CAMLs) assessment was collected at baseline and subsequently at Day 1 of each treatment cycle to assess changes in CTCs and CAMLs after treatment and to perform correlative analysis between CCR5 expression and PD-L1 expression.
Creatv Microtech has developed a size-based technology and detection methodology (LifeTrac Assay) that enables the collection and characterization of all cancer-associated cells in the blood i.e., CTCs, epithelial mesenchymal transition cells (EMTs) and CAMLs [Adams Cytometry 2015, Adams RSC 2014]. The CellSieve™ filtration platform is used to capture CAMLs and CTCs.

[3] = system: CCR5+ metastatic Triple Negative Breast Cancer (mTNBC); assay: Phase Ib/II mTNBC study: tumor imaging scans; type: in vivo, human; conditions: Patient D, with carboplatin
Source text: as §1, §2
Scans were taken at the end of every two cycles (every 6 weeks). The subject had Scan 1 after six weeks, Scan 2 after 12 weeks, and Scan 3 after 18 weeks (Table 4).

[4] = Phase Ib/II mTNBC study: adverse events; type: in vivo; conditions: Patient D, weekly 350 mg leronlimab + carboplatin every three weeks, up to Cycle 6 Day 1 visit
Source text: as §1, §2

[5] = system: metastatic HER2+ breast cancer; assay: Single patient emergency use IND: CT/MRI imaging of metastases; type: in vivo, human; conditions: Patient A, 700 mg weekly
Source text: This subject, Patient A, is a person with a diagnosis of metastatic breast cancer, stage IV. The subject previously received Taxotere/Herceptin/Pertuzumab as frontline therapy for metastatic HER2 positive breast cancer. They had partial response for their systemic disease, but then developed diffuse brain metastases (systemic disease stable). They completed whole-brain radiation therapy and continues on Herceptin and Pertuzumab. They have neuropathy and residual side effects from chemotherapy, which limits use of current second-line options due to concern for side effects.
Prior to enrolling in the trial, the patient had 18 identifiable tumor spots in the brain.

[6] = system: CTC and EMT; assay: Single patient emergency use IND: CTC and EMT counts; type: in vivo, human; conditions: Patient A, 700 mg weekly, approximately ten weeks after initiation
Procedure: Approximately ten weeks following the initiation of treatment, the subject's CTC and EMT counts were measured, and zero CTCs and zero EMTs were identified. Lesion and nodule sizes were measured in the breast and liver of Patient A and metastases were also qualitatively described (FIG. 6). Protein expression levels of CCR5 (FIG. 7A) and PD-L1 (FIG. 7B) on individual CAMLs from Patient A were measured by flow cytometry and reported as Mean Fluorescence Intensity (MFI). CCR5 MFI (“CCR5 INT”) was calculated by subtracting background signal of a negative control sample from the experimental value. CAML size was also measured and reported in […].

[7] = system: MDA-MB-231 cells expressing Luc2-eGFP (MDA-MB-231.pFLUG); assay: Breast cancer tumor / lung metastasis model in mice, bioluminescence imaging; type: in vivo, female NCI Athymic NCr-nu/nu mice
Procedure: Each mouse received one million (10^6) MDA-MB-231 cells expressing Luc2-eGFP (called MDA-MB-231.pFLUG) through the tail vein. […] Treatment was started one day before the injection.
In vivo bio-luminescence imaging was performed following intraperitoneal injection with 100 μl of D-luciferin (30 mg/mL) to the control and treated groups. […] FIG. 1D is a plot of the percentage of mice with tumors.

[8] = system: HIV-1; conditions: at concentrations that do not affect CCR5 chemokine receptor activity; Olson 1999, Trkola 2001; cited from earlier work

Sequence of CCR5 (P51681 whole entry): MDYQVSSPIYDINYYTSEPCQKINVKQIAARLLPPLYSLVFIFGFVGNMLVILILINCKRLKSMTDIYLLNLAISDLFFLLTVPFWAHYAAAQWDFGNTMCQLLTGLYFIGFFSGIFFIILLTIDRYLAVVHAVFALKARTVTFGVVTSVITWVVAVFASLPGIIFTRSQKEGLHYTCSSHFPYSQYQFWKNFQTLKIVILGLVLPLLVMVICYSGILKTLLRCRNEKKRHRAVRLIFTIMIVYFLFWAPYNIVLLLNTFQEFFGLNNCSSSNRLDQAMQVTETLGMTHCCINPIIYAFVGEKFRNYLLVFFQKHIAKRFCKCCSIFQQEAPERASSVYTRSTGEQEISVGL

COC[C@@H](c1ccc(C(F)(F)F)cc1)N1CCN(C2(C)CCN(C(=O)c3c(C)ncnc3C)CC2)C[C@@H]1C [vicriviroc]
Cell killing mediated by DNA-damaging chemotherapeutic agents [1]: dramatically enhanced

leronlimab: humanized monoclonal anti-CCR5 antibody, humanized version of the murine mAb PA14
Detectable levels of CTC ([2]; Patient C (second subject), with carboplatin, after two weeks of treatment): no detectable levels | Reduction in EMT cells ([2]; Patient C, with carboplatin, after two weeks of treatment): 70% | CAML count ([2]; Patient C, with carboplatin, following at least two weeks of treatment, initial count 45): 30 | CCR5 expression on cancer-associated cells ([2]; Patient D (first patient), with carboplatin, approximately 11 weeks of treatment): large reductions | Detectable circulating tumor cells (CTC) or putative metastatic tumor cells in peripheral blood ([2]; Patient D (first subject), with carboplatin, following 16 weeks of treatment): no detectable | Number of CTCs (PD-L1) ([2]; with carboplatin, C1D1): 0 | Number of Apoptotic CTCs (CCR5) ([2]; with carboplatin, C1D1): 0 | Number of CAMLs (CCR5) ([2]; with carboplatin, C1D1): 0 | Number of CAMLs (PD-L1) ([2]; with carboplatin, C1D1): 1 | Number of CTCs (CCR5) ([2]; with carboplatin, C1D1): 0 | Number of EMTs (CCR5) ([2]; with carboplatin, C1D1): 1 | Number of EMTs (PD-L1) ([2]; with carboplatin, C1D1): 1 | CAML- Total ([2]; with carboplatin, C1D1): 1 | EMT-Total ([2]; with carboplatin, C1D1): 2 | Number of Apoptotic CTC (PD-L1) ([2]; with carboplatin, C1D1): 0 | CTC-Total ([2]; with carboplatin, C1D1): 0 | Number of CTCs (PD-L1) ([2]; with carboplatin, C2D1): 0 | Number of Apoptotic CTCs (CCR5) ([2]; with carboplatin, C2D1): 0 | Number of CAMLs (CCR5) ([2]; with carboplatin, C2D1): 1 | Number of CAMLs (PD-L1) ([2]; with carboplatin, C2D1): 2 | Number of CTCs (CCR5) ([2]; with carboplatin, C2D1): 0 | Number of EMTs (CCR5) ([2]; with carboplatin, C2D1): 0 | Number of EMTs (PD-L1) ([2]; with carboplatin, C2D1): 0 | CAML- Total ([2]; with carboplatin, C2D1): 3 | EMT-Total ([2]; with carboplatin, C2D1): 0 | Number of Apoptotic CTC (PD-L1) ([2]; with carboplatin, C2D1): 0 | CTC-Total ([2]; with carboplatin, C2D1): 0 | Number of CTCs (PD-L1) ([2]; with carboplatin, C3D1): 0 | Number of Apoptotic CTCs (CCR5) ([2]; with carboplatin, C3D1): 0 | Number of CAMLs (CCR5) ([2]; with carboplatin, C3D1): 3 | Number of CAMLs (PD-L1) ([2]; with carboplatin, C3D1): 1 | Number of CTCs (CCR5) ([2]; with carboplatin, C3D1): 0 | Number of EMTs (CCR5) ([2]; with carboplatin, C3D1): 0 | Number of EMTs (PD-L1) ([2]; with carboplatin, C3D1): 0 | Number of Apoptotic CTC (PD-L1) ([2]; with carboplatin, C3D1): 0 | Number of CTCs (PD-L1) ([2]; with carboplatin, C4D1): 0 | Number of Apoptotic CTCs (CCR5) ([2]; with carboplatin, C4D1): 0 | Number of CAMLs (CCR5) ([2]; with carboplatin, C4D1): 0 | Number of CAMLs (PD-L1) ([2]; with carboplatin, C4D1): 1 | Number of CTCs (CCR5) ([2]; with carboplatin, C4D1): 0 | Number of EMTs (CCR5) ([2]; with carboplatin, C4D1): 0 | Number of EMTs (PD-L1) ([2]; with carboplatin, C4D1): 0 | CAML- Total ([2]; with carboplatin, C4D1): 1 | EMT-Total ([2]; with carboplatin, C4D1): 0 | Number of Apoptotic CTC (PD-L1) ([2]; with carboplatin, C4D1): 0 | CTC-Total ([2]; with carboplatin, C4D1): 0 | Number of CTCs (PD-L1) ([2]; with carboplatin, C5D1): 0 | Number of Apoptotic CTCs (CCR5) ([2]; with carboplatin, C5D1): 0 | Number of CAMLs (CCR5) ([2]; with carboplatin, C5D1): 1 | Number of CAMLs (PD-L1) ([2]; with carboplatin, C5D1): 2 | Number of CTCs (CCR5) ([2]; with carboplatin, C5D1): 0 | Number of EMTs (CCR5) ([2]; with carboplatin, C5D1): 0 | Number of EMTs (PD-L1) ([2]; with carboplatin, C5D1): 0 | CAML- Total ([2]; with carboplatin, C5D1): 3 | EMT-Total ([2]; with carboplatin, C5D1): 0 | Number of Apoptotic CTC (PD-L1) ([2]; with carboplatin, C5D1): 0 | CTC-Total ([2]; with carboplatin, C5D1): 0 | CAML- Total ([2]; with carboplatin, C6D1): 8 | EMT-Total ([2]; with carboplatin, C6D1): 0 | CTC-Total ([2]; with carboplatin, C6D1): 0 | Detectable circulating tumor cells (CTCs) or putative metastatic tumor cells in peripheral blood ([2]; first patient of Phase 1b/2 trial, at 11 weeks of treatment): no detectable | Decrease of total CTC+EMT counts ([2]; third subject, with carboplatin, first two weeks of treatment): 75% | New lung nodules ([3]; Scan 3): no new lung nodules found | New lymphadenopathy or metastatic disease on diagnostic CT chest, abdomen and pelvis ([3]; Scan 3): No new | Previously identified right hilar lymph node ([3]; Scan 3): resolved | Right lung metastasis maximum standardized uptake values (SUVs) ([3]; Scan 3, previously 15.3): values (SUVs) of 6.8 (previously | Decrease in size of target lesion ([3]; scan 3 vs previous 2.4×1.9): 20% | Serious adverse events [4]: no serious adverse events had been reported | New metastatic spots in the liver, lung and brain (CT scan) ([5]; approximately four weeks after initial treatment): no sign of new metastatic spots | Reduction in tumor volume of the largest brain tumor ([5]; approximately two months): 56% | New metastasis in the brain ([5]; approximately two months after initial treatment): no new metastasis was detectable | Identifiable lesions in the brain ([5]; approximately two months, 18 identifiable tumor spots before): three | CTC count [6]: zero | EMT count [6]: zero | Tumor volume in a breast cancer tumor model ([7]; mouse, in vivo): significant reduction | HIV-1 entry and replication [8]: potently inhibits

maraviroc
Lung metastasis / homing of breast cancer cells to the lungs in mouse model ([7]; FIG. 1): block homing of breast cancer cells to the lungs; also recorded: inhibition of lung metastasis; also recorded: effectively blocked lung metastases | Cell killing mediated by DNA-damaging chemotherapeutic agents [1]: dramatically enhanced
